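Five compound concentrations were applied to cells in 96-well plates for 48 hours; endpoints were derived by simple linear interpolation of the resulting dose-response curve. Here, GI50 denotes the concentration required for 50% inhibition of growth. Definition used: TGI = concentration required for complete inhibition of growth.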

What all share (test): NCI tumour cell line growth inhibition, 48 h
Assay [1] deals with CAKI-1 renal.
The subject of assay [2] is HL-60(TB) leukemia.
The subject of assay [3] is MCF7 breast.
Assay [4] relates to MDA-MB-231 breast.
Assay [5] concerns OVCAR-5 ovarian.
In assay [6] the test system is SK-MEL-5 melanoma.
Assay [7] has as its system SR leukemia.
The subject of assay [8] is UACC-62 melanoma.

Regarding `CCCCCCCCCCCCCC[P+](CCCCCC)(CCCCCC)CCCCCC`, the GI50 in assay [1] was 0.236 µM; in assay [2] it was 0.0303 µM; in assay [3], 0.146 µM; in assay [4] it was 0.0596 µM; in assay [5] it was 0.267 µM; in assay [6], 0.0829 µM. Besides, the GI50 in assay [7] is 0.0196 µM; in assay [8] it was 0.0422 µM. Moreover, the TGI in assay [1] came to 0.771 µM; in assay [2], 0.0966 µM; in assay [3], 1.3 µM; in assay [4], 1.49 µM; in assay [6], 0.258 µM; in assay [7], 0.0608 µM. In addition, the TGI in assay [8] was 1.9 µM.

`CNC(=O)c1c(NC(=O)c2cccc(C(F)(F)F)c2)sc2c1CCC(=O)C2`: the GI50 in assay [1] is 0.282 µM; in assay [2] it was 0.318 µM; in assay [3] it was 0.283 µM; in assay [4], 0.332 µM; in assay [5], 0.465 µM; in assay [6] it was 0.462 µM. The GI50 is 0.191 µM in assay [7] and 0.414 µM in assay [8]. The TGI in assay [1] was 1.22 µM; in assay [2] it was 1.98 µM; in assay [3], 2.84 µM; in assay [4] it was 1.88 µM; in assay [5], 2.73 µM; in assay [6] it was 1.66 µM. The figures for the TGI in assay [7] and in assay [8] were greater than 100 µM and 2.14 µM, respectively.

For the compound `CCN(CC)CCOc1ccc(Nc2ncc3cc(-c4c(Cl)cccc4Cl)c(=O)n(CCOC)c3n2)cc1`, the GI50 in assay [1] is 0.0149 µM; in assay [2] it was 0.496 µM; in assay [3], 1.57 µM; in assay [4], 0.0432 µM; in assay [5], 0.137 µM; in assay [6] it was 1.51 µM. Besides, the GI50 is 0.459 µM in assay [7] and 0.206 µM in assay [8]. Moreover, the TGI turned out to be 0.174 µM in assay [1]; 2.06 µM in assay [2]; 8.4 µM in assay [3]; 0.813 µM in assay [4]; 7.09 µM in assay [5]; 5.94 µM in assay [6]. Besides, the TGI in assay [7] was found to be 2.15 µM; in assay [8], 7.04 µM.

Take `COc1ccc(C2=CC(c3cc(OC)c(OC)c(OC)c3)NC(=O)N2)cc1OC` (centres undefined): the GI50 in assay [1] was 2.26 µM; in assay [2], 1.57 µM; in assay [3] it was 4.26 µM; in assay [4], 2.84 µM; in assay [5] it was 2.28 µM; in assay [6] it was 4.41 µM. The GI50 in assay [7] is 2.11 µM; in assay [8], 4.31 µM. Also, the TGI turned out to be 9.32 µM in assay [1]; 6.52 µM in assay [2]; 14.8 µM in assay [3]; 8.04 µM in assay [4]; 6.42 µM in assay [5]; 16.5 µM in assay [6]. The values for the TGI in assay [7] and in assay [8] were 10.4 µM and 16.8 µM, respectively.

With `NC1C2C(CC(=O)O)OCC=C3CN4CCC1(C(=O)C(=O)O)C4CC32` (centres undefined), the TGI in assay [1], in assay [2], in assay [3], in assay [4], in assay [5] and in assay [6] was greater than 100 µM throughout. In addition, the TGI in assay [7] and in assay [8] was greater than 100 µM throughout.

As to `CC1=C(C(=O)Nc2ccc3[nH]ncc3c2)C(c2ccc(F)cc2)NC(=O)N1` (centres undefined), the GI50 in assay [1], in assay [2], in assay [3], in assay [4], in assay [5] and in assay [6] was greater than 25 µM throughout. The GI50 in assay [7] is 19.2 µM; in assay [8], greater than 25 µM. For the same compound, the TGI in assay [1], in assay [2], in assay [3], in assay [4], in assay [5] and in assay [6] was greater than 25 µM each time. In addition, the TGI in assay [7] and in assay [8] was greater than 25 µM throughout.

`COc1cc(C(=O)/C=C/c2c(-c3ccc(F)cc3)nc3sc(C)cn23)cc(OC)c1OC`: the GI50 in assay [1] is 1.78 µM; in assay [2], 2.87 µM; in assay [3], 1.81 µM; in assay [4], 5.38 µM; in assay [5], greater than 100 µM; in assay [6] it was 0.516 µM. Also, the values for the GI50 in assay [7] and in assay [8] were 0.802 µM and 2.91 µM, respectively. The TGI was 53.1 µM in assay [1]; greater than 100 µM in assay [2]; greater than 100 µM in assay [3]; greater than 100 µM in assay [4]; greater than 100 µM in assay [5]; 1.98 µM in assay [6]. Moreover, the TGI in assay [7] and in assay [8] was greater than 100 µM throughout.

For `CNc1nc(C)c(-c2nc(Nc3cccc(S(N)(=O)=O)c3)ncc2F)s1`, the GI50 was 0.052 µM in assay [1]; 0.0309 µM in assay [2]; 0.0255 µM in assay [3]; 0.0416 µM in assay [4]; 0.0324 µM in assay [5]; 0.0296 µM in assay [6]. The GI50 is 0.0171 µM in assay [7] and 0.0224 µM in assay [8]. Moreover, the TGI in assay [1] stood at 37.2 µM; in assay [2], 0.108 µM; in assay [3], 4.64 µM; in assay [4] it was 5.98 µM; in assay [5], 15.1 µM; in assay [6], 0.639 µM. Besides, the values for the TGI in assay [7] and in assay [8] were 1.15 µM and 0.0741 µM, respectively.

On to `N#Cc1cccc(C(=O)c2cnn(-c3ccc(F)cc3)c2N)c1`, for which the GI50 in assay [1], in assay [2], in assay [3], in assay [4], in assay [5] and in assay [6] was greater than 25 µM each time. Also, the GI50 in assay [7] and in assay [8] was greater than 25 µM throughout. Further, the TGI in assay [1], in assay [2], in assay [3], in assay [4], in assay [5] and in assay [6] was greater than 25 µM each time. Besides, the TGI in assay [7] and in assay [8] was greater than 25 µM throughout.

In the case of `O=C(Nc1ccc(Cl)cc1)c1cc2c(cc1O)[nH]c1ccccc12`, the GI50 in assay [1] is 2.26 µM; in assay [2], 4.43 µM; in assay [3], 2.56 µM; in assay [4], 2.24 µM; in assay [5], 3.72 µM; in assay [6] it was 1.74 µM. Also, the results for the GI50 in assay [7] and in assay [8] were 3.44 µM and 2.49 µM, respectively. For the same compound, the TGI in assay [1] was 6.02 µM; in assay [2] it was greater than 100 µM; in assay [3], 10 µM; in assay [4] it was 6.94 µM; in assay [5] it was 16.2 µM; in assay [6], 3.41 µM. Moreover, the TGI in assay [7] came out at 31.6 µM; in assay [8], 8.89 µM.

`Nc1c(C(=O)c2cccc(-c3ccc[n+]([O-])c3)c2)cnn1-c1ccc(F)cc1F`: the GI50 in assay [1], in assay [2], in assay [3], in assay [4], in assay [5] and in assay [6] was greater than 25 µM each time. Further, the GI50 is 17.8 µM in assay [7] and greater than 25 µM in assay [8]. In addition, the TGI in assay [1], in assay [2], in assay [3], in assay [4], in assay [5] and in assay [6] was greater than 25 µM in each case. In addition, the TGI in assay [7] and in assay [8] was greater than 25 µM throughout.

Consider `Cc1cc(=O)c2cc(N=Cc3ccc([N+](=O)[O-])o3)ccc2o1`, for which the TGI in assay [1], in assay [2], in assay [3], in assay [4], in assay [5] and in assay [6] was greater than 100 µM each time. Besides, the TGI in assay [7] and in assay [8] was greater than 100 µM in each case.

In the case of `CCON=C1C(C)(C)C(C)(C)C(C)(C)C1(C)C`, the TGI in assay [1], in assay [2], in assay [3], in assay [4], in assay [5] and in assay [6] was greater than 100 µM in each case. In addition, the TGI in assay [7] and in assay [8] was greater than 100 µM each time.

In the case of `C[C@@H]1COCCN1c1nc(-c2cnc(N)cc2C(F)F)nc(N2[C@H](C)COC[C@@H]2C)n1`, the GI50 in assay [1] is 0.19 µM; in assay [2], 0.863 µM; in assay [3], 0.115 µM; in assay [4], 0.412 µM; in assay [5], 0.392 µM; in assay [6] it was 0.307 µM. In addition, the GI50 in assay [7] is 0.189 µM; in assay [8] it was 0.116 µM. Moreover, the TGI was found to be 11.4 µM in assay [1]; 19.5 µM in assay [2]; 11.4 µM in assay [3]; 20.8 µM in assay [4]; 16.5 µM in assay [5]; 2.03 µM in assay [6]. Also, the TGI was 4.88 µM in assay [7] and 2.74 µM in assay [8].

`CCCCCCOc1ccc(/C=N/NC(N)=S)cc1`: the GI50 in assay [1] was 1.57 µM; in assay [2], 1.15 µM; in assay [3] it was 6.74 µM; in assay [4] it was 1.67 µM; in assay [5], 12.8 µM; in assay [6], 7.52 µM. The GI50 is 4.22 µM in assay [7] and 2.58 µM in assay [8]. The TGI is 5.71 µM in assay [1]; 17.7 µM in assay [2]; 34.3 µM in assay [3]; 17.1 µM in assay [4]; greater than 100 µM in assay [5]; 20.8 µM in assay [6]. Further, the results for the TGI in assay [7] and in assay [8] were greater than 100 µM and 10.3 µM, respectively.

Regarding `O=c1[nH]cnc2c1nnn2C1OC(CO)C(O)C1O` (centres undefined), the GI50 in assay [1] is 0.735 µM; in assay [2], 0.617 µM; in assay [3], 1.41 µM; in assay [4], 4.49 µM; in assay [5] it was 26.6 µM; in assay [6], 5.59 µM. The GI50 in assay [7] is 3.37 µM; in assay [8] it was 4.65 µM. Also, the TGI is greater than 45.1 µM in assay [1]; greater than 43.9 µM in assay [2]; greater than 78.8 µM in assay [3]; greater than 100 µM in assay [4]; greater than 100 µM in assay [5]; 30.3 µM in assay [6]. Besides, the TGI in assay [7] was greater than 100 µM; in assay [8] it was 42.8 µM.

Consider `CC(=N\O)/C(C)=N/O.CC(=N\O)/C(C)=N/O.CC(=N\O)/C(C)=N/O.CC(=N\O)/C(C)=N/O.[Cu].[Cu]`, for which the GI50 in assay [1] was 20.3 µM; in assay [2], 26.4 µM; in assay [3], 17.3 µM; in assay [4] it was 20.3 µM; in assay [5] it was 19.3 µM; in assay [6], 17.8 µM. The GI50 was 24 µM in assay [7] and 17.1 µM in assay [8]. Moreover, the TGI in assay [1] worked out at 34.6 µM; in assay [2], 44.4 µM; in assay [3] it was 31.2 µM; in assay [4], 35.6 µM; in assay [5] it was 34 µM; in assay [6], 32.2 µM. Moreover, the values for the TGI in assay [7] and in assay [8] were 61.4 µM and 30.8 µM, respectively.

As for `CN(C)c1ccc(C(=O)c2ccc(N(C)C)c(N)c2)cc1N`, the GI50 is 3.02 µM in assay [1]; 1.29 µM in assay [2]; 0.686 µM in assay [3]; 5.81 µM in assay [4]; 15.8 µM in assay [5]; 2.7 µM in assay [6]. Further, the GI50 was 0.406 µM in assay [7] and 2.32 µM in assay [8]. Further, the TGI in assay [1] was greater than 43.3 µM; in assay [2], 9.08 µM; in assay [3], greater than 59.9 µM; in assay [4] it was greater than 77.6 µM; in assay [5] it was greater than 100 µM; in assay [6], 34.2 µM. The values for the TGI in assay [7] and in assay [8] were greater than 16.4 µM and greater than 64.5 µM, respectively.

On to `CCOC(=O)c1cc2c(n1Cc1cc(OC)cc(OC)c1)-c1oncc1CCC2`, for which the GI50 is 0.101 µM in assay [1]; 0.0311 µM in assay [2]; 0.0401 µM in assay [3]; 0.439 µM in assay [4]; 0.294 µM in assay [5]; 0.0528 µM in assay [6]. The values for the GI50 in assay [7] and in assay [8] were 0.0382 µM and 0.0714 µM, respectively. In addition, the TGI is greater than 100 µM in assay [1]; 0.0972 µM in assay [2]; greater than 100 µM in assay [3]; greater than 24.5 µM in assay [4]; greater than 100 µM in assay [5]; 6.22 µM in assay [6]. The TGI in assay [7] and in assay [8] was greater than 100 µM throughout.

Values taken from PubChem BioAssay (NCI).
